Measurements published in US11897904B2, “Herbicidally active bicyclic benzamides” (Bayer Aktiengesellschaft, priority 2017, dated 2024).

How the values were obtained:
ABUTH [1] = assay: Pre-emergence herbicidal action; type: in vivo, Abutilon theophrasti; details: 320 g/ha; for herbicidal activity ABUTH: pre-emergence, scored visually after about 3 weeks vs untreated controls
Text: (§1) 1. Pre-Emergence Herbicidal Action and Crop Plant Compatibility
(§2) Seeds of monocotyledonous and dicotyledonous weed plants and crop plants are placed in plastic or organic planting pots and covered with soil. The compounds of the invention, formulated in the form of wettable powders (WP) or as emulsion concentrates (EC), are then applied onto the surface of the covering soil as aqueous suspension or emulsion with addition of 0.5% additive at a water application rate of 600 l/ha (converted). After the treatment, the pots are placed in a greenhouse and kept under good growth conditions for the trial plants. After about 3 weeks, the effect of the preparations is scored visually in comparison with untreated controls as percentages. The tables below show the herbicidal activity of numerous compounds according to the invention against important harmful plants. For example, 100% activity=the plants have died, 0% activity=like control plants.

AMARE [2] = assay: Pre-emergence herbicidal action; type: in vivo, Amaranthus retroflexus; details: 320 g/ha, scored visually after about 3 weeks vs untreated controls
Text: as §1, §2

CYPES = assay: Pre-emergence herbicidal action; type: in vivo, Cyperus esculentus; details: dosage 320 g/ha, scored visually after about 3 weeks vs untreated controls, 100% = plants have died, 0% = like control plants
Text: as §1, §2

ECHCG [3] = assay: Pre-emergence herbicidal action; type: in vivo, Echinochloa crus-galli; details: 320 g/ha, scored visually after about 3 weeks vs untreated controls
Text: as §1, §2

MATIN [4] = assay: Pre-emergence herbicidal action; type: in vivo, Matricaria inodora; details: 320 g/ha; for herbicidal activity MATIN: pre-emergence, scored visually after about 3 weeks vs untreated controls
Text: as §1, §2

SETVI [5] = assay: Pre-emergence herbicidal action; type: in vivo, Setaria viridis; details: 320 g/ha; for herbicidal activity SETVI: pre-emergence, scored visually after about 3 weeks vs untreated controls
Text: as §1, §2

STEME [6] = assay: Pre-emergence herbicidal action; type: in vivo, Stellaria media; details: 320 g/ha, scored visually after about 3 weeks vs untreated controls
Text: as §1, §2

VERPE [7] = assay: Pre-emergence herbicidal action; type: in vivo, Veronica persica; details: 320 g/ha, scored visually after about 3 weeks vs untreated controls
Text: as §1, §2

VIOTR [8] = assay: Pre-emergence herbicidal action; type: in vivo, Viola tricolor; details: 320 g/ha, scored visually after about 3 weeks vs untreated controls
Text: as §1, §2

AMARE [9] = assay: Post-emergence herbicidal action; type: in vivo, Amaranthus retroflexus; details: 80 g/ha, rated visually after about 3 weeks vs untreated controls
Description: (§3) 2. Post-Emergence Herbicidal Action and Crop Plant Compatibility
(§4) Seeds of monocotyledonous and dicotyledonous weeds and crop plants are placed in sandy loam in plastic or organic planting pots, covered with soil and cultivated in a greenhouse under controlled growth conditions. 2 to 3 weeks after sowing, the test plants are treated at the one-leaf stage. The compounds of the invention, formulated in the form of wettable powders (WP) or as emulsion concentrates (EC), are then sprayed onto the green parts of the plants as aqueous suspension or emulsion with addition of 0.5% additive at a water application rate of […] (converted). After the test plants had been kept in the greenhouse under optimum growth conditions for about 3 weeks, the activity of the preparations is rated visually in comparison to untreated controls. The tables below show the herbicidal activity of numerous compounds according to the invention against important harmful plants. For example, 100% activity=the plants have died, 0% activity=like control plants.

ECHCG [10] = assay: Post-emergence herbicidal action; type: in vivo, Echinochloa crus-galli; details: 80 g/ha, rated visually after about 3 weeks vs untreated controls
Description: as §3, §4

MATIN [11] = assay: Post-emergence herbicidal action; type: in vivo, Matricaria inodora; details: 80 g/ha, rated visually after about 3 weeks vs untreated controls
Description: as §3, §4

PHBPU = assay: Post-emergence herbicidal action; type: in vivo, Ipomoea purpurea; details: 80 g/ha, rated visually after about 3 weeks vs untreated controls
Description: as §3, §4

SETVI [12] = assay: Post-emergence herbicidal action; type: in vivo, Setaria viridis; details: 80 g/ha, rated visually after about 3 weeks vs untreated controls
Description: as §3, §4

STEME [13] = assay: Post-emergence herbicidal action; type: in vivo, Stellaria media; details: 80 g/ha, rated visually after about 3 weeks vs untreated controls
Description: as §3, §4

VERPE [14] = assay: Post-emergence herbicidal action; type: in vivo, Veronica persica; details: 80 g/ha, rated visually after about 3 weeks vs untreated controls
Description: as §3, §4

VIOTR [15] = assay: Post-emergence herbicidal action; type: in vivo, Viola tricolor; details: 80 g/ha, rated visually after about 3 weeks vs untreated controls
Description: as §3, §4

ABUTH [16] = assay: Post-emergence herbicidal action; type: in vivo, Abutilon theophrasti; details: 80 g/ha; for herbicidal activity ABUTH: post-emergence, rated visually after about 3 weeks vs untreated controls
Description: as §3, §4

ALOMY [17] = assay: Pre-emergence herbicidal action; type: in vivo, Alopecurus myosuroides; details: pre-emergence comparative experiment, 320 g/ha
Text: as §1, §2

AVEFA [18] = assay: Pre-emergence herbicidal action; type: in vivo, Avena fatua; details: pre-emergence comparative experiment, 320 g/ha
Text: as §1, §2

ALOMY [19] = assay: Post-emergence herbicidal action; type: in vivo, Alopecurus myosuroides; details: post-emergence comparative experiment, 80 g/ha
Description: as §3, §4

AVEFA [20] = assay: Post-emergence herbicidal action; type: in vivo, Avena fatua; details: post-emergence comparative experiment, 80 g/ha
Description: as §3, §4

LOLMU = assay: Post-emergence herbicidal action; type: in vivo, Lolium multiflorum; details: post-emergence comparative experiment, 80 g/ha
Description: as §3, §4

POLCO = assay: Post-emergence herbicidal action; type: in vivo, Polygonum convolvulus; details: post-emergence comparative experiment, 80 g/ha
Description: as §3, §4

numerous harmful plants [21] = assay: Pre-emergence comparative experiment, herbicidal activity; type: in vivo
Text: as §2, with “control plants. In a comparative experiment, by way of example, the herbicidal activity of compound No. 2-53 according to the invention was compared to that of compound No. A-117 known from WO 2013/076315 A2.” for “control plants.”

numerous harmful plants [22] = assay: Post-emergence comparative experiment, herbicidal activity; type: in vivo
Description: as §4, with “control plants. In a comparative experiment, by way of example, the herbicidal activity of compound No. 2-53 according to the invention was compared to that of compound No. A-117 known from WO 2013/076315 A2.” for “control plants.”

[23] = pre-emergence comparative experiment

Cn1nnnc1NC(=O)c1ccc(C(F)(F)F)c2c1OC[S+]2[O-] (centres unmarked) [Example 2-68, 4-(trifluoromethyl)-1,3-benzoxathiolane-N-(1-methyltetrazol-5-yl)-7-carboxamide 3-oxide]
herbicidal activity ABUTH (ABUTH [1]): 90%
herbicidal activity AMARE (AMARE [2]): 100%
herbicidal activity CYPES (CYPES): 90%
herbicidal activity ECHCG (ECHCG [3]): 90%
herbicidal activity MATIN (MATIN [4]): 90%
herbicidal activity SETVI (SETVI [5]): 100%
herbicidal activity STEME (STEME [6]): 90%
herbicidal activity VERPE (VERPE [7]): 100%
herbicidal activity VIOTR (VIOTR [8]): 100%
herbicidal activity AMARE (AMARE [9]): 100%
herbicidal activity ECHCG (ECHCG [10]): 100%
herbicidal activity MATIN (MATIN [11]): 90%
herbicidal activity PHBPU (PHBPU): 90%
herbicidal activity SETVI (SETVI [12]): 90%
herbicidal activity STEME (STEME [13]): 100%
herbicidal activity VERPE (VERPE [14]): 100%
herbicidal activity VIOTR (VIOTR [15]): 100%

CCn1nnnc1NC(=O)c1ccc(C(F)(F)F)c2c1OCS2(=O)=O [Example 3-82]
herbicidal activity ABUTH (ABUTH [1]): 90%
herbicidal activity AMARE (AMARE [2]): 100%
herbicidal activity CYPES (CYPES): 90%
herbicidal activity ECHCG (ECHCG [3]): 100%
herbicidal activity MATIN (MATIN [4]): 100%
herbicidal activity STEME (STEME [6]): 100%
herbicidal activity VERPE (VERPE [7]): 100%
herbicidal activity VIOTR (VIOTR [8]): 100%
herbicidal activity AMARE (AMARE [9]): 100%
herbicidal activity ECHCG (ECHCG [10]): 80%
herbicidal activity MATIN (MATIN [11]): 100%
herbicidal activity PHBPU (PHBPU): 90%
herbicidal activity STEME (STEME [13]): 100%
herbicidal activity VERPE (VERPE [14]): 100%
herbicidal activity VIOTR (VIOTR [15]): 100%

CC1Oc2c(C(=O)Nc3nnnn3C)ccc(C(F)(F)F)c2S1(=O)=O (centres unmarked) [Example 2-106]
herbicidal activity ABUTH (ABUTH [1]): 100%
herbicidal activity AMARE (AMARE [2]): 100%
herbicidal activity CYPES (CYPES): 90%
herbicidal activity ECHCG (ECHCG [3]): 90%
herbicidal activity MATIN (MATIN [4]): 100%
herbicidal activity SETVI (SETVI [5]): 90%
herbicidal activity STEME (STEME [6]): 90%
herbicidal activity VIOTR (VIOTR [8]): 100%
herbicidal activity ABUTH (ABUTH [16]): 90%
herbicidal activity AMARE (AMARE [9]): 100%
herbicidal activity ECHCG (ECHCG [10]): 100%
herbicidal activity MATIN (MATIN [11]): 90%
herbicidal activity PHBPU (PHBPU): 80%
herbicidal activity SETVI (SETVI [12]): 100%
herbicidal activity STEME (STEME [13]): 100%
herbicidal activity VIOTR (VIOTR [15]): 100%

CCn1nnnc1NC(=O)c1ccc(C(F)(F)F)c2c1OC[S+]2[O-] (centres unmarked) [Example 3-67]
herbicidal activity ABUTH (ABUTH [1]): 90%
herbicidal activity AMARE (AMARE [2]): 100%
herbicidal activity CYPES (CYPES): 80%
herbicidal activity ECHCG (ECHCG [3]): 100%
herbicidal activity MATIN (MATIN [4]): 90%
herbicidal activity SETVI (SETVI [5]): 80%
herbicidal activity STEME (STEME [6]): 100%
herbicidal activity VERPE (VERPE [7]): 100%
herbicidal activity VIOTR (VIOTR [8]): 100%
herbicidal activity ABUTH (ABUTH [16]): 80%
herbicidal activity AMARE (AMARE [9]): 100%
herbicidal activity ECHCG (ECHCG [10]): 100%
herbicidal activity MATIN (MATIN [11]): 90%
herbicidal activity PHBPU (PHBPU): 100%
herbicidal activity STEME (STEME [13]): 100%
herbicidal activity VERPE (VERPE [14]): 100%
herbicidal activity VIOTR (VIOTR [15]): 100%

Cn1nnnc1NC(=O)c1ccc(C(F)(F)F)c2c1OCS2 [Example 2-53, 4-(trifluoromethyl)-1,3-benzoxathiolane-N-(1-methyltetrazol-5-yl)-7-carboxamide]
Herbicidal action against ABUTH (ABUTH [1]; [23]): 90%
Herbicidal action against ALOMY (ALOMY [17]): 30%
Herbicidal action against AVEFA (AVEFA [18]): 60%
Herbicidal action against MATIN (MATIN [4]; [23]): 90%
Herbicidal action against SETVI (SETVI [5]; [23]): 80%
Herbicidal action against ABUTH (ABUTH [16]; post-emergence comparative experiment): 80%
Herbicidal action against ALOMY (ALOMY [19]): 80%
Herbicidal action against AVEFA (AVEFA [20]): 100%
Herbicidal action against LOLMU (LOLMU): 70%
Herbicidal action against POLCO (POLCO): 80%
herbicidal activity compared to that of compound No. A-117 (numerous harmful plants [21]): superiority
herbicidal activity compared to that of compound No. A-117 (numerous harmful plants [22]): superiority

Cn1nnnc1NC(=O)c1ccc(C(F)(F)F)c2c1OCS2(=O)=O [Example 2-83]
herbicidal activity ABUTH (ABUTH [1]): 100%
herbicidal activity AMARE (AMARE [2]): 100%
herbicidal activity CYPES (CYPES): 100%
herbicidal activity ECHCG (ECHCG [3]): 100%
herbicidal activity MATIN (MATIN [4]): 90%
herbicidal activity SETVI (SETVI [5]): 100%
herbicidal activity STEME (STEME [6]): 100%
herbicidal activity VERPE (VERPE [7]): 100%
herbicidal activity VIOTR (VIOTR [8]): 100%
herbicidal activity ABUTH (ABUTH [16]): 90%
herbicidal activity AMARE (AMARE [9]): 100%
herbicidal activity ECHCG (ECHCG [10]): 90%
herbicidal activity MATIN (MATIN [11]): 100%
herbicidal activity PHBPU (PHBPU): 90%
herbicidal activity SETVI (SETVI [12]): 90%
herbicidal activity STEME (STEME [13]): 100%
herbicidal activity VERPE (VERPE [14]): 90%
herbicidal activity VIOTR (VIOTR [15]): 100%
